# Measured values taken from patent publication US7759334B2, “Soluble forms of amoxicillin and treatment of animals” (Pharmaceutical Solutions, Inc., priority 1999, dated 2010).
# Assays:
# [1] = system: Enterococci; conditions: cited from earlier work
# [2] = system: STREP Suis Type 2; experiment: Treatment of streptococcus Suis in nursery pigs; type: in vivo; conditions: 300 pigs, 3 mg/lb for 7 days from 35 days of age
# Procedure: Treatment of streptococcus Suis—a group of 600 pigs was divided into 2 groups of 300. Each group was side by side in a 600 animal nursery room. Group 1 (300) was treated with 3 mg/lb of amoxicillin at 35 days of age for a period of 7 days. Group 2 (300) was treated with a placebo—citric acid/nutrisweet/strawberry flavor at 35 days of age for a period of 7 days. […] Death loss ranged from 3 to 10 percent with poor treatment results.
# [3] = cited from earlier work
# [4] = system: Hermophilus Pawasuis; experiment: Treatment for Hermophilus Pawasuis in finishing gilts; type: in vivo; conditions: 500 gilts, 3 mg/# via water
# From the text: Treatment for Hermophilus Pawasuis in finishing Gilts—wt. 250#. • Marked Reduction in death loss following 5 day coarse of therapy.
SMILES,IVIIC for ampicillin averages [1],Chronic cells @ 50 [2],Morbidity Number [2],Mortality Number [2],Peak plasma concentration relative to ampicillin ([3]; oral administration of the same doses),Time at which peak plasma concentrations are reached ([3]; oral administration),"Peak concentration in plasma (average) ([3]; oral, 250 mg administered)",Morbidity 8-142 [4],Mortality In 14 days [4],Mortality result in 7 days [4],Morbidity 0-7 ([4]; days 0-7)
CC1(C)S[C@@H]2[C@H](NC(=O)[C@H](N)c3ccccc3)C(=O)N2[C@H]1C(=O)O [ampicillin],1.5 mg/mL,–,–,–,–,–,–,–,–,–,–
CC1(C)S[C@@H]2[C@H](NC(=O)[C@H](N)c3ccc(O)cc3)C(=O)N2[C@H]1C(=O)O [amoxicillin],–,1,2,0,two to two and one-half times greater,2 h,about 4 μg/ml,0,0,0,2
